Laboratory results taken from US11377425B1, “Small molecule modulators of IL-17” (LEO Pharma A/S, priority 2018, dated 2022).

What follows are molecules tested against T1, human IL-17AA (Homo sapiens, UniProt Q16552) (assay: IL-8 release assay in human epithelial keratinocytes adult (HEKa)). Conditions: HEKa cells, 3 ng/mL HEK-human IL-17AA + 10 ng/mL human TNFalpha; read-out: Rel EC50 IL-8 release assay.
T1 construct: host or cells: HEK (human embryonic kidney) cells
T1 sequence (Q16552 24-155): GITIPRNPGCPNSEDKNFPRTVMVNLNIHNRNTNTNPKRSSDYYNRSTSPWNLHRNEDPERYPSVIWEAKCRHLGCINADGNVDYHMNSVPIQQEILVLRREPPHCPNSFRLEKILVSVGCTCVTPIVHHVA
Format: cell-based
How it was run: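 Adult human epidermal keratinocytes stimulated 68-72 h at 37 °C with 3 ng/mL HEK-derived human IL-17AA plus 10 ng/mL TNF-alpha (final) in the presence of compound; TNF-alpha alone defines 100% inhibition. Secreted IL-8 measured by HTRF as percent of controls; relative IC50/Emax from four-parameter fit (r^2>0.9), cytotoxicity by PrestoBlue.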

EC50 [µM]	Structure (SMILES)
0.1 to 1	Cn1cncc1-c1ccc(NC(=O)[C@@H](NC(=O)c2ccnn2C)C(c2ccccc2)c2ccccc2)cc1O [Example 420, N-[(1S)-1-benzhydryl-2-[3-hydroxy-4-(3-methylimidazol-4-yl)anilino]-2-oxo-ethyl]-2-methyl-pyrazole-3-carboxamide]
0.1 to 1	Cc1n[nH]c(C)c1-c1ccc(NC(=O)[C@@H](NC(=O)c2cnn3ncccc23)C2CCCCC2)cc1 [Example 70, N-[(1S)-1-cyclohexyl-2-[4-(3,5-dimethyl-1H-pyrazol-4-yl)anilino]-2-oxo-ethyl]pyrazolo[1,5-b]pyridazine-3-carboxamide]
0.1 to 1	Cc1ncn(C)c1-c1ccc(NC(=O)C(NC(=O)c2ccnn2C)C(C2CC2)C2CC2)cc1 (stereo not drawn) [Example 332, N-[1-(dicyclopropylmethyl)-2-[4-(3,5-dimethylimidazol-4-yl)anilino]-2-oxo-ethyl]-2-methyl-pyrazole-3-carboxamide]
< 0.1	Cc1n[nH]c(C)c1-c1ccc(NC(=O)[C@@H](NC(=O)c2ccnn2C2CCOC2)C(C2CC2)C2CC2)cc1 (stereo partly drawn) [Example 219, N-[(1S)-1-(dicyclopropylmethyl)-2-[4-(3,5-dimethyl-1H-pyrazol-4-yl)anilino]-2-oxo-ethyl]-2-tetrahydrofuran-3-yl-pyrazole-3-carboxamide]
0.1 to 1	CCn1nccc1C(=O)NC(C(=O)Nc1ccc(-c2c(C)n[nH]c2C)cc1)C(C1CCC1)C1CCC1 (single isomer, unassigned) [Example 37, N-[1-[di(cyclobutyl)methyl]-2-[4-(3,5-dimethyl-1H-pyrazol-4-yl)anilino]-2-oxo-ethyl]-2-ethyl-pyrazole-3-carboxamide]
> 1	Cc1n[nH]c(C)c1-c1ccc(NC(=O)C(NC(=O)c2ccnn2C)C(c2ccccc2)C2CC2)cc1 (single isomer, unassigned) [Example 304, N-[1-[cyclopropyl(phenyl)methyl]-2-[4-(3,5-dimethyl-1H-pyrazol-4-yl)anilino]-2-oxo-ethyl]-2-methyl-pyrazole-3-carboxamide]
> 1	Cn1cncc1-c1ccc(NC(=O)[C@@H](NC(=O)OC(C)(C)C)C2CCCC2)cc1 [Example 98, tert-butyl N-[(1S)-1-cyclopentyl-2-[4-(3-methylimidazol-4-yl)anilino]-2-oxo-ethyl]carbamate]
0.1 to 1	Cc1n[nH]c(C)c1-c1ccc(NC(=O)[C@@H](NC(=O)c2cn(C)c3ncccc23)C2CCCCC2)cc1 [Example 71, N-[(1S)-1-cyclohexyl-2-[4-(3,5-dimethyl-1H-pyrazol-4-yl)anilino]-2-oxo-ethyl]-1-methyl-pyrrolo[2,3-b]pyridine-3-carboxamide]
0.1 to 1	Cc1n[nH]c(C)c1-c1ccc(NC(=O)[C@@H](NC(=O)Cc2ccc(N(C)C)cc2)C2CCCCC2)cc1 [Example 54, (2S)-2-cyclohexyl-2-[[2-(4-dimethylaminophenyl)acetyl]amino]-N-[4-(3,5-dimethyl-1H-pyrazol-4-yl)phenyl]acetamide]
< 0.1	CCc1n[nH]c(CC)c1-c1ccc(NC(=O)[C@@H](NC(=O)c2ccnn2CC)C(C2CC2)C2CC2)cc1 [Example 396, N-[(1S)-1-(dicyclopropylmethyl)-2-[4-(3,5-diethyl-1H-pyrazol-4-yl)anilino]-2-oxo-ethyl]-2-ethyl-pyrazole-3-carboxamide]
> 1	Cc1n[nH]c(C)c1-c1ccc(NC(=O)[C@@H](NC(=O)N2CCOCC2)C2CCCCC2)cc1 [Example 478, N-[(1S)-1-cyclohexyl-2-[4-(3,5-dimethyl-1H-pyrazol-4-yl)anilino]-2-oxo-ethyl]morpholine-4-carboxamide]
< 0.1	Cc1n[nH]c(C)c1-c1ccc(NC(=O)[C@@H](NC(=O)c2ccnn2C)[C@H]2CCc3ccccc32)cc1 [Example 79, N-[(1S)-2-[4-(3,5-dimethyl-1H-pyrazol-4-yl)anilino]-1-[(1S)-indan-1-yl]-2-oxo-ethyl]-2-methyl-pyrazole-3-carboxamide]
0.1 to 1	Cc1ncn(C)c1-c1ccc(NC(=O)[C@@H](NC(=O)OC2CC2)C(c2ccccc2)c2ccccc2)cc1 [Example 423, Cyclopropyl N-[(1S)-1-benzhydryl-2-[4-(3,5-dimethylimidazol-4-yl)anilino]-2-oxo-ethyl]carbamate]
0.1 to 1	Cc1n[nH]c(C)c1-c1ccc(NC(=O)[C@@H](NC(=O)c2ncnn2C(C)C)C(C2CC2)C2CC2)cc1 [Example 162, N-[(1S)-1-(dicyclopropylmethyl)-2-[4-(3,5-dimethyl-1H-pyrazol-4-yl)anilino]-2-oxo-ethyl]-2-isopropyl-1,2,4-triazole-3-carboxamide]
0.1 to 1	Cc1[nH]nc(C(C)O)c1-c1ccc(NC(=O)[C@@H](NC(=O)OC(C)(C)C)C(c2ccccc2)c2ccccc2)cc1 (stereo partly drawn) [Example 434, tert-butyl N-[(1S)-1-benzhydryl-2-[4-[5-(1-hydroxyethyl)-3-methyl-1H-pyrazol-4-yl]anilino]-2-oxo-ethyl]carbamate]
< 0.1	Cc1n[nH]c(C)c1-c1ccc(NC(=O)[C@@H](NC(=O)c2ccnn2C)C(C(C)C)C(C)C)cc1 [Example 244]
0.1 to 1	Cc1ncccc1-c1ccc(NC(=O)[C@@H](NC(=O)c2ccnn2C(C)C)C(C2CC2)C2CC2)cc1 [Example 404, N-[(1S)-1-(dicyclopropylmethyl)-2-[4-(2-methyl-3-pyridyl)anilino]-2-oxo-ethyl]-2-isopropyl-pyrazole-3-carboxamide]
0.1 to 1	Cc1n[nH]c(C)c1-c1ccc(NC(=O)[C@@H](NC(=O)c2ccnn2C(C)CO)C(C)C(C)(C)C)cc1 (single isomer, unassigned) [Example 177]
< 0.1	Cc1n[nH]c(C)c1-c1ccc(NC(=O)[C@@H](NC(=O)c2ccnn2C)C2C3CC4CC(C3)CC2C4)cc1 (stereo partly drawn) [Example 202, N-[(1S)-1-(2-adamantyl)-2-[4-(3,5-dimethyl-1H-pyrazol-4-yl)anilino]-2-oxo-ethyl]-2-methyl-pyrazole-3-carboxamide]
0.1 to 1	Cn1cncc1-c1ccc(NC(=O)[C@@H](NC(=O)c2ccnn2C)C2CCCCC2)cc1O [Example 419, N-[(1S)-1-Cyclohexyl-2-[3-hydroxy-4-(3-methylimidazol-4-yl)anilino]-2-oxo-ethyl]-2-methyl-pyrazole-3-carboxamide]
< 0.1	Cc1n[nH]c(C)c1-c1ccc(NC(=O)[C@@H](NC(=O)c2ccnn2C(C)C)[C@H]2CCOc3c(F)cccc32)cc1 [Example 287, N-[(1S)-2-[4-(3,5-dimethyl-1H-pyrazol-4-yl)anilino]-1-[(4S)-8-fluorochroman-4-yl]-2-oxo-ethyl]-2-isopropyl-pyrazole-3-carboxamide]
< 0.1	Cc1n[nH]c(C)c1-c1ccc(NC(=O)[C@@H](NC(=O)c2cnnn2C(C)C)[C@H]2CC[C@H](C)CC2)cc1 [Example 148, N-[(1S)-2-[4-(3,5-dimethyl-1H-pyrazol-4-yl)anilino]-1-(4-methylcyclohexyl)-2-.oxo-ethyl]-3-isopropyl-tnazole-4-carboxamide]
< 0.1	Cc1n[nH]c(C)c1-c1ccc(NC(=O)C(NC(=O)c2ccnn2C)C2CCc3c(F)cccc32)cc1 (single isomer, unassigned) [Example 247]
> 1	Cn1cncc1-c1ccc(NC(=O)[C@H](Cc2ccccc2)NC(=O)OC(C)(C)C)cc1 [Example 95, tert-butyl N-[(1S)-1-benzyl-2-[4-(3-methylimidazol-4-yl)anilino]-2-oxo-ethyl]carbamate]
